Measurements: ChEMBL document CHEMBL4602690, “Pigments of the Moss Paraleucobryum longifolium: Isolation and Structure Elucidation of Prenyl-Substituted 8,8'-Linked 9,10-Phenanthrenequinone Dimers” (J Nat Prod, 2020)

Tests used:
Type in all cases: functional, cell-based
MDA-MB-231 = test: Antiproliferative activity against human MDA-MB-231 cells by MTT assay
A2780 = test: Antiproliferative activity against human A2780 cells by MTT assay
SiHa = test: Antiproliferative activity against human SiHa cells by MTT assay
HeLa = test: Antiproliferative activity against human HeLa cells by MTT assay

| IC50 (MDA-MB-231) [µM] | IC50 (A2780) [µM] | IC50 (HeLa) [µM] | SMILES | IC50 (SiHa) [µM] |
| --- | --- | --- | --- | --- |
| < 10 | < 10 | < 10 | COc1cc(O)c2c(c1-c1c(OC)cc(O)c3c1C(=O)C(=O)c1c-3ccc(O)c1CCC(C)(C)O)C(=O)C(=O)c1c-2ccc(O)c1CCC(C)(C)O | < 10 |
| < 10 | < 10 | < 10 | C=C(C)[C@H](CCC(C)(C)O)Cc1c(O)ccc2c1C(=O)C(=O)c1c-2c(O)cc(OC)c1-c1c(OC)cc(O)c2c1C(=O)C(=O)c1c-2ccc(O)c1C[C@@H](CCC(C)(C)O)C(=C)C | < 10 |
